# Data reported in paper PMC4203401 (Journal of Medicinal Chemistry, 2014).
# pEC50, pIC50: −log10 of the molar value.
# Columns and labels:
# [1] = molecular target: polymerase function of RT (Human immunodeficiency virus type 1 group M subtype B, UniProt P04585); assay: HIV-1 RT polymerase inhibition; type: biochemical
# HIV-1(IIIB) = assay: HIV-1 replication inhibition in HeLa-CD4-LTR-β-gal cells; type: cell-based
# [2] = molecular target: HIV-1 IN (rIN), strand transfer (Human immunodeficiency virus type 1 group M subtype B, UniProt P04585); assay: HIV-1 IN gel-based assay, strand transfer; type: biochemical; conditions: IC50 for strand transfer
# [3] = molecular target: HIV-1 RT-associated RNase H activity (Human immunodeficiency virus type 1 group M subtype B, UniProt P04585); assay: HIV-1 RT RNase H inhibition; type: biochemical
# HTLV-IIIB = conditions: read-out: EC50, originally reported; HTLV-IIIB-based infection assay; ref 19b; cited from earlier work
Structure (SMILES),Inhibition of polymerase function of RT (inactive up to) [1] [µM],pIC50 [2],Ability to inhibit RNase H [3],other results
"O=C(O)/C(O)=C/C(=O)c1cn(Cc2ccc(F)cc2)c2cc(N3CCN(CCCCl)CC3)ccc2c1=O [Compound 12i, 4-[1-[(4-Fluorophenyl)methyl]-7-[N-(3-chloroprop-1-yl)piperazin-1-yl]-4-(1H)-quinolinon-3-yl]-2-hydroxy-4-oxo-2-butenoic Acid]",> 40,> 7.00,,"Block of HIV-1 replication (HIV-1(IIIB); HeLa-CD4-LTR-β-gal cells, HIV-1(IIIB)): unable to block replication"
"CCOC(=O)/C(O)=C/C(=O)c1cn(Cc2ccc(F)cc2)c2cc(N(C)C)ccc2c1=O [Compound 11g, 4-[1-[(4-Fluorophenyl)methyl]-7-(dimethylamino)-4-(1H)-quinolinon-3-yl]-2-hydroxy-4-oxo-2-butenoic Acid Ethyl Ester]",,,,"SI, selectivity index (CC50/EC50) (HIV-1(IIIB); CC50/EC50 in HeLa cells): 20"
"C[C@@H]1CCO[C@H]2Cn3cc(C(=O)NCc4ccc(F)cc4F)c(=O)c(O)c3C(=O)N12 [Compound 3, dolutegravir]",,,inactive,
"Cc1nnc(C(=O)NC(C)(C)c2nc(C(=O)NCc3ccc(F)cc3)c(O)c(=O)n2C)o1 [Compound 2, raltegravir]",,,inactive,
"O=C(O)/C(O)=C/C(=O)c1cn(Cc2ccc(F)cc2)c2cc(N3CCOCC3)ccc2c1=O [Compound 12f, 4-[1-[(4-Fluorophenyl)methyl]-7-(morpholin-4-yl)-4-(1H)-quinolinon-3-yl]-2-hydroxy-4-oxo-2-butenoic Acid]",> 40,> 7.00,,
"O=C(O)/C(O)=C/C(=O)c1cn(Cc2ccc(F)cc2)c2cc(N3CCCC3)ccc2c1=O [Compound 7b, reference compound]",> 40,,,pEC50 (HTLV-IIIB): 6.77
